Measurements reported in patent US20240382498A1, “NOVEL INHIBITOR OF HYPE-MEDIATED AMPYLATION” (Purdue Research Foundation, priority 2023, published 2024).

Experiments:
HeLa cells = experiment: MTT cell viability assay, HeLa; format: cell-based, human; conditions: 48 hr
Procedure: The cell lines were procured from ATCC (American Type Culture Collection) and cultured in DMEM (Dulbecco's Modified Eagle Medium) supplemented with 10% FBS (fetal bovine serum) without antibiotics. Cells were grown and maintained in a humidified incubator at 37° C. with 5% CO2. For the MTT assay, cells were trypsinized and harvested at ˜80-90% confluency and seeded in 96 well plates at a density of 1×10^4 cells per well. The seeded cells were incubated overnight and treated with 1 μM, 3 μM, 5 μM, 7 μM, 10 μM, 20 μM, 30 μM or 50 μM (final concentration) of DMSO-dissolved compound for 48 hr. To rule out vehicle induced toxicity, only 0.5% of final DMSO concentration was added to the cells. Post-incubation, the compound treatment was removed and replaced with 0.5 mg/ml (final concentration) of freshly prepared MTT solution. After incubating for 3.5 hr at 37° C., 5% CO2 humidified incubator, MTT was carefully removed without aspirating the formazan crystals and replaced with equivalent volume of DMSO to dissolve the formazan crystals. The plates were then read using a multi-plate reader at 570 nm. The absorbance was recorded and % viability was calculated according to the following equation:
[formula] • where, Abt is the absorbance of compound treated cells and Abc is the absorbance of control cells.

[1] = target: T1, E234G HYPE AMPylation of T229A BiP (Homo sapiens, UniProt Q9BVA6, E234G); experiment: Fluorescence in-gel T229A BiP AMPylation assay with E234G HYPE and Fl-ATP; format: biochemical; conditions: 10 μM compound
T1 construct: Δ102 (aa 103-458) HYPE constructs (WT, E234G, and E234G/H363A); His6-SUMO (cleaved yes); made in house; host or cells: E. coli BL21-DE3-RILP
T1 sequence (Q9BVA6 103-458 E234G): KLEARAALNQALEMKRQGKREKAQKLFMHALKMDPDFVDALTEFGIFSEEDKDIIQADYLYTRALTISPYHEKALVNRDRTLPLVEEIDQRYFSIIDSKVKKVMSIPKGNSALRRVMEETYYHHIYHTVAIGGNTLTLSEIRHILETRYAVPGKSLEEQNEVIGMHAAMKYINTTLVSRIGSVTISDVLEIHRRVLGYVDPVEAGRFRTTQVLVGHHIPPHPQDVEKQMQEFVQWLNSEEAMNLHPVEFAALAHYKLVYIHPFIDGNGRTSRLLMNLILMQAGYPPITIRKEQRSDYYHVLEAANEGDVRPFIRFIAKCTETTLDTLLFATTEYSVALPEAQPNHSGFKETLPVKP
Procedure: (§1) 1 μM of WT HYPE (final concentration) was preincubated with 10 μM DMSO-dissolved compound (final concentration) or equivalent volume of 100% DMSO at room temperature for 10 min. Reactions were run for 20 hr at 30° C. in the dark and began with the addition of 1 μM Fl-ATP (final concentration). Alternatively, E234G HYPE AMPylation reactions were run at 10 min due to its hyperactivity. All other parameters were held constant. All reactions were performed HTS Buffer (50 mM HEPES, 1 mM MgCl2, 0.1% Triton X-100, pH 7.50). All reactions were quenched with 4×SDS loading dye, boiled for 5 min at 95° C., and samples were run on 12% SDS-PAGE gels. Gels were imaged on a Typhoon 9500 FLA imager (General Electric) for fluorescence at 473 nm. Imaged gels were then stained with Coomassie Brilliant Blue, destained, and imaged for protein concentration. Where specified, 5 μM of T229A BiP (final concentration) was added to reactions before the addition of compound.

E234G HYPE [2] = target: T2, E234G HYPE (Homo sapiens, UniProt Q9BVA6, E234G); experiment: Radioactive in-gel autoAMPylation assay with E234G HYPE and α-32P-ATP; format: biochemical; conditions: 10 μM compound
T2 construct: Δ102 (aa 103-458) HYPE constructs (WT, E234G, and E234G/H363A); His6-SUMO (cleaved yes); made in house; host or cells: E. coli BL21-DE3-RILP
T2 sequence (Q9BVA6 103-458 E234G): T1 sequence (Q9BVA6 103-458 E234G)
Procedure: (§2) 1 μM of HYPE (final concentration) and (where specified) 5 μM of T229A BiP (final concentration) were preincubated with 10 μM DMSO-dissolved compound (final concentration) or equivalent volume of 100% DMSO at room temperature for 10 min in HTS Buffer. Reactions were run for 10 min at 30° C. and began with the addition of 0.01 μCi/μL α-32P-ATP (final concentration). All reactions were performed according to our previously described protocol for in vitro radioactive AMPylation assays19. Where specified, 5 μM of T229A BiP (final concentration) was added to reactions before the addition of compound.

E234G HYPE [3] = target: T2, E234G HYPE; experiment: Fluorescence in-gel autoAMPylation assay with E234G HYPE and Fl-ATP; format: biochemical; conditions: 10 μM compound
Procedure: as §1

[4] = target: T1, E234G HYPE AMPylation of T229A BiP; experiment: Radioactive in-gel T229A BiP AMPylation assay with E234G HYPE and α-32P-ATP; format: biochemical; conditions: 10 μM compound
Procedure: as §2

- inhibition of T229A BiP AMPylation in gel [1]: confirm the inhibitory properties
- inhibition of E234G HYPE autoAMPylation in gel (E234G HYPE [2]): bioactivity of I2.10 is mirrored
SMILES: c1cn(-c2ccc(-c3nnc(-c4ccoc4)o3)cn2)cn1 [Compound I2.10]
- cell viability (HeLa cells; HeLa (so in the source), 50 μM): ~60%
- cell viability (HeLa cells; HeLa, up to 50 μM): 100%
- inhibition of E234G HYPE autoAMPylation in gel (E234G HYPE [3]): consistently perturbs HYPE autoAMPylation
- inhibition of T229A BiP AMPylation in gel [4]: inhibitory efficacy against BiP AMPylation was reproducible
